Like-named read-outs stand apart in the source and are kept apart here. Ends that are not written are not given here.
What was measured:
KDR [1] = assay: Competition assay of 125I-VEGF binding to CHO-KDR cells; details: for efficiency of V1 analogues in displacing 125I-VEGF165 from CHO-KDR cells: displacement curves, FIGS. 10-11; for inhibitory effect on VEGF binding to KDR (CHO-KDR cells): fixed peptide concentration 2.1×10^−4 M, heparin present
Experimental: Competition assay of binding to CHO-KDR cells. CHO-KDR cells were seeded in 24-well plates at a density of 5×10^5 cells/well. After 24 h, subconfluent plates were transferred at 4 C., and all subsequent operations were done at 4 C. […] The amount of radioactivity bound to the cells was counted in a gamma counter (LKB 1261 Multigamma). The receptor affinity and the number of binding sites per cell were determined by Scatchard's analysis (Scatchard, 1986).

KDR [2] = target: T1, KDR (Homo sapiens, UniProt P35968); assay: ELISA of phage-displayed peptide binding to CHO-KDR cells; details: clones selected by anti-VEGF antibody binding, 10^12 pfu/ml
T1 construct: expressed in transfected cells; host or cells: glycosaminoglycan-deficient pgsA 745 CHO cells, psV-7d expression vector
T1 sequence (P35968 20-1356): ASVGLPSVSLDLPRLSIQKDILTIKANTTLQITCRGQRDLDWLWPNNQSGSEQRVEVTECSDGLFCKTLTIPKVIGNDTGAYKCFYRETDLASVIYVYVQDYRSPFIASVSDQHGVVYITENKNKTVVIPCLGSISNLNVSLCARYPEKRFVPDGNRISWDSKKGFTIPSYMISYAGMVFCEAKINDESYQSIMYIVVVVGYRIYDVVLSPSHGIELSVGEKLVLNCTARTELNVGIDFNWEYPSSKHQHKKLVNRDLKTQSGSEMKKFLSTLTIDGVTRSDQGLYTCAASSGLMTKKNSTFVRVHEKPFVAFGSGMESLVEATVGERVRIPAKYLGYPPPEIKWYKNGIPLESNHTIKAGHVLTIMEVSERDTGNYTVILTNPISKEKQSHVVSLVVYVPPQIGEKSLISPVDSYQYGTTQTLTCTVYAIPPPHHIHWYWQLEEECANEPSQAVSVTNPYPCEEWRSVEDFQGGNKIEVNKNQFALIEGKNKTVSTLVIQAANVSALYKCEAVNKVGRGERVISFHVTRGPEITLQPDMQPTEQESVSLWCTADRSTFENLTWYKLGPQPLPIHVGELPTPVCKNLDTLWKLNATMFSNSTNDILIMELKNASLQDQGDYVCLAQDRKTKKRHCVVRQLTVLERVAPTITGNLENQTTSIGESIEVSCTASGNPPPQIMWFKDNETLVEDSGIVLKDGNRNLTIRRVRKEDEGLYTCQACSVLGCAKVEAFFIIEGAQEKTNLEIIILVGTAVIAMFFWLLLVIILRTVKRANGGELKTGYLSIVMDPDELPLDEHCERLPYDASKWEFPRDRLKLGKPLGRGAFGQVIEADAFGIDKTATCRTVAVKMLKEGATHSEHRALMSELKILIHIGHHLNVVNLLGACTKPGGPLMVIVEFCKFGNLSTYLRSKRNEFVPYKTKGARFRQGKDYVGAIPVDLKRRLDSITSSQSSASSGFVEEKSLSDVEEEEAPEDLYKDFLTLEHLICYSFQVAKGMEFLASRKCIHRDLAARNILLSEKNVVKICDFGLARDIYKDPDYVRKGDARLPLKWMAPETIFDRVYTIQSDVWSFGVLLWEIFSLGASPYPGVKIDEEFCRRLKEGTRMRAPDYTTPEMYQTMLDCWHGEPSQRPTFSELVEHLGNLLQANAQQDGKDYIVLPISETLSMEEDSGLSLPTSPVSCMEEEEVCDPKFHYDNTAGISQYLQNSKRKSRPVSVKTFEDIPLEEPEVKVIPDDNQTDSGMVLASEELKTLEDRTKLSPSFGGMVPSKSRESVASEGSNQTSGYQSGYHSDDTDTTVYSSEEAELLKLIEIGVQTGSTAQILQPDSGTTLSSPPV
Experimental: Exponentially growing CHO-KDR cells were seeded in 96-well microtiter plates at 7×10^4 cells/well and left overnight at 37 C. Cells were fixed with paraformaldehyde (4% in PBS) for 15 min at room temperature and washed with PBS. Wells were then filled with PBS-Glycine 0.2%, kept for 15 min at room temperature and then washed with PBS. Phage particles (10^12 or 10^13/Ml) were added to each well and incubated 2 h at room temperature. Wells were washed with PBS and the amount of bound phage was detected with peroxidase-conjugated anti-M13 phage serum (Pharmacia Biotech, Uppsala, Sweden).

CPAE cells = assay: CPAE cell proliferation assay (BrdU incorporation); format: cell-based, calf
Experimental: (§1) Cell proliferation assay. To test the anti-VEGF antibody neutralizing effect, CPAE cells were plated into 96-well tissue culture plates at a density of 500 cells/well. After 24 h, various concentrations of anti-VEGF antibody were added. The cells were cultured for an additional day and cell proliferation was measured using the Cell proliferation ELISA kit from Boerhinger (Indianapolis, Ind.). Cells were incubated with BrdU for 4 h at 37 C., and the incorporation of BrdU in newly synthetized DNA was quantified by immunoassay as described by the manufacturer. To investigate the peptide effect, after 24 h of CPAE cell growth, 2.1×10^−4M synthetic peptides were added daily to the culture medium. Cell proliferation was assessed after 24 h, 48 h or 72 h as described above. […] Cells were trypsinized and counted after 5 days using a Coulter counter.

HUAE cells [3] = assay: VEGF-induced HUAE cell proliferation; format: cell-based, human; details: 2 ng/ml VEGF, peptide daily, counted after 5 days
Experimental: as §1

HUAE cells [4] = assay: KDR anti-idiotypic antibody (AIA)-induced HUAE cell proliferation; format: cell-based, human; details: 100 ng/ml KDR anti-idiotypic antibodies, peptide daily, 5 days
Experimental: as §1

[5] = test system: VEGF-induced corneal angiogenesis; assay: Rabbit corneal pocket assay; format: in vivo; details: day 12; for effect on VEGF-induced corneal angiogenic response: implant with 2 pmol VEGF and 30 nmol peptide; for corneal neovascularization by peptide alone vs vehicle: implant with 30 nmol peptide, no VEGF
Experimental: Rabbit corneal pocket assay. […] These implants were inserted in New Zealand rabbit (Elevage du Trottis, Esperce, France) corneal stroma 2 mm away from the limbus (Favard et al, 1991). Neovascularization was assessed on day 12 by direct examination with a slit lamp and scored according to a 4 grade scale (grade 1: less than 1 mm long neovessels, grade 2: 1 mm long neovessels, grade 3: 1 to 2 mm long neovessels, grade 4: neovessels extending to the implant). Means and standard deviations were determined on 8 implant groups for each condition.

HUVEC = assay: VEGF165-induced HUVEC proliferation; format: cell-based, human; details: V1 400 μg/ml, various VEGF165 concentrations, 96 hours
Experimental: FIG. 13 Effect of V1 (400 μg/ml) VEGF165 induced HUVEC proliferation. Various concentrations of VEGF165 were added during 96 hours.
The inhibitory effect of V1 on Human umbilical vein endothelial cell (HUVEC) in primary culture.

VEGF-R2 on HUV-EC cells = format: binding; details: for Kd: Scatchard analysis
From the text: (§2) Experimental conditions are indicated in the legend of FIG. 10.
(see FIGS. 16A, B and C).

neuropilin 1 (NP1) = target: T2, neuropilin 1 (NP1) (Homo sapiens, UniProt O14786); assay: Displacement of 125I-VEGF165 binding to MDA-MB 231 cells; details: cells without VEGF-R2, expressing NP1; read-out: CI 50 of inhibition of 125I VEGF165 binding to MDA-MB cells (converted)
T2 construct: endogenous in cells; host or cells: MDA-MB 231 breast tumoral cell line
T2 sequence (O14786 22-923): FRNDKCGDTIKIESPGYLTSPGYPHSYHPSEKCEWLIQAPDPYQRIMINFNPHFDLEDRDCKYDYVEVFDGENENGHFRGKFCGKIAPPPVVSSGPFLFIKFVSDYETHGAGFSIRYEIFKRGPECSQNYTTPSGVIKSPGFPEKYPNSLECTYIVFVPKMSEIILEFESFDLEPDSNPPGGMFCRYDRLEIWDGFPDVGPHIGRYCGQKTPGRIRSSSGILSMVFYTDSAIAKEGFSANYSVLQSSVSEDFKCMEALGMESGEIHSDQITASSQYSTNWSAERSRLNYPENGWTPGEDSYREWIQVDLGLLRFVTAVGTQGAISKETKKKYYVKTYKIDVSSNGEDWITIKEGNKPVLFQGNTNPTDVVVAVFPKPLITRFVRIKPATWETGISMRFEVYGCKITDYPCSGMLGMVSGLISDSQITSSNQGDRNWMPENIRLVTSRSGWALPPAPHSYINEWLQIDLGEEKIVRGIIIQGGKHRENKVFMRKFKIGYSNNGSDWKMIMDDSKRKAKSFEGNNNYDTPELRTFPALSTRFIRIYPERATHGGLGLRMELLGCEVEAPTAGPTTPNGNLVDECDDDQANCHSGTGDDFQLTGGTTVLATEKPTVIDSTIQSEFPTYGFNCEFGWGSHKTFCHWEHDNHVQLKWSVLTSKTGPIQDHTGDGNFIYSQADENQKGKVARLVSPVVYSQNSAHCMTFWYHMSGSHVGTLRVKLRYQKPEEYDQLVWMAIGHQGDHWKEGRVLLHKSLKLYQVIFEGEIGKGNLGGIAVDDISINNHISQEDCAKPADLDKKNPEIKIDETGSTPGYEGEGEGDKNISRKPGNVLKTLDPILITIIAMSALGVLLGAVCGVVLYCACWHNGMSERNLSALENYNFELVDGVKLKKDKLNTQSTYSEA
From the text: as §2

[6] = test system: VEGF-R2-VEGF165 and NP1-VEGF165 complexes; assay: Cross linking of I125 VEGF165 to HUV-EC cells; format: binding, human; details: V1 2.4×10−4M and 4.8×10−4M, I125 VEGF165 160 pM
From the text: FIG. 19: Cross linking of I125 VEGF165 (160 pM) to HUV-EC cells. 1: Total binding. […] 3: V1, (2.4×10−4M). 4: V1, (4.8×10−4M).
The 240-260 kDa complex could correspond to the […] complex and the 160-170 kDa complex could correspond to the NP1 -VEGF 165 complex. The labeling of the two complexes was decreased in the presence of the V1 peptide. (FIG. 19)

In the case of “AAWLPPK [A9, V1 analogue, substitution of the C-terminal arginine by lysine]”, the “efficiency of V1 analogues in displacing 125I-VEGF165 from CHO-KDR cells” value (“efficiency of V1 analogues” for short) (KDR [1]) is reported as “reduced the peptide efficiency”.
ATALPP [A10] was tested, and the “efficiency of V1 analogues” value (KDR [1]) was “significantly reduced the peptide efficiency”.
With ATWLPPA [A7] the “efficiency of V1 analogues” value (KDR [1]) was “totally devoid of activity”.
In the case of ATWLPPR [V1, ATWLPPR], the “effect on affinity of I125 VEGF165 for receptors of transfected CHO cells (Scatchard)” value (KDR [1]; V1 50 μg/ml) is reported as “lowered”, the “effect on heparin-dependent VEGF165 binding to transfected CHO cells” value (KDR [1]; V1 50 μg/ml) is reported as “inhibited this heparin agonistic effect” and the “inhibitory effect on VEGF binding to KDR (CHO-KDR cells)” value (KDR [1]) is reported as “showed an inhibitory effect”. For the same substance, the “ELISA signal of phage clones on CHO-KDR cells” value (KDR [2]) was “best reactivities”, the “reduction of CPAE cell proliferation” value (CPAE cells; 2.1×10^−4 M peptide, 24 h) was 60% and the “inhibition of VEGF-induced HUAE cell proliferation” value (HUAE cells [3]) was “suppressed the mitogenic activity of VEGF in a dose dependent manner”. The “inhibition of AIA-dependent HUAE cell proliferation” value (HUAE cells [4]) was “could suppress the AIA-dependent cell proliferation”, the “effect on VEGF-induced corneal angiogenic response” value [5] was “totally abolished” and the “corneal neovascularization by peptide alone vs vehicle” value [5] was “did not improve the generation of new blood vessels”. For the same substance, the “inhibition of VEGF-induced HUVEC proliferation” value (HUVEC) was “inhibited by V1 in a non competitive manner”, the “effect on VEGF binding to HUV-EC cells” value (VEGF-R2 on HUV-EC cells; V1 40 μg/ml, Scatchard) was “inhibited only the VEGF binding to high affinity receptors” and the IC50 (neuropilin 1 (NP1)) was 45200 nM. For the same substance, the “labeling of the two 125I-VEGF-receptor complexes” value [6] was “decreased”.
Heparin [reference compound] was tested, and the “optimal heparin concentration for increasing VEGF binding to CHO-KDR cells” value (KDR [1]) was 1.8 µg/mL.
With ILDNYKL [V5] the “effect on VEGF binding to CHO-KDR cells, various concentrations” value (KDR [1]; same conditions as V1 dose response, FIG. 5) was “did not modify VEGF binding”, the “inhibition of VEGF-induced HUAE cell proliferation” value (HUAE cells [3]) was “no inhibitory effect” and the “inhibition of AIA-dependent HUAE cell proliferation” value (HUAE cells [4]) was “unlike V5, V1 could suppress”. For the same substance, the “effect on VEGF-induced corneal angiogenic response” value [5] was “not modified” and the “corneal neovascularization by peptide alone vs vehicle” value [5] was “did not improve the generation of new blood vessels”.
With LPPNPTK [V6] the “inhibitory effect on VEGF binding to KDR (CHO-KDR cells)” value (KDR [1]) was “no effect on VEGF binding to KDR” and the “ELISA signal of phage clones on CHO-KDR cells” value (KDR [2]) was “best reactivities”.
For SLPAHAR [K4], the “effect on endothelial cell growth (words, discussion)” value (CPAE cells; in vitro) was “minor effect on endothelial growth”.
Work on VEGF yielded a Kd (VEGF-R2 on HUV-EC cells; read-out: Kd of I125 VEGF165 on HUV-EC cells, high affinity receptors) of 0.117 nM and a Kd (VEGF-R2 on HUV-EC cells; read-out: Kd of I125 VEGF165 on HUV-EC cells, second (lower affinity) receptors) of 2.3 nM.

Reference: patent US6559126B2 (Institut Pasteur, priority 2000, dated 2003)
